Counter-ions that a name gives are not always drawn. Marks after values point to notes of the source that are not given here. One block for each compound: values may come before it.
Legend:
D3R = D3R (Homo sapiens, UniProt P35462); assay: Radioligand competition binding at human D3R ([3H]N-methylspiperone, HEK293 membranes); set-up: expressed in transfected cells; host or cells: HEK293; conditions: for Ki: HEK 293 cells expressing hD3R, read-out: Ki ± SEM, D3R; for D2/D3: ratio of Ki values D2R/D3R; for D4/D3: ratio of Ki values D4R/D3R
D3R, sequence (P35462 whole entry): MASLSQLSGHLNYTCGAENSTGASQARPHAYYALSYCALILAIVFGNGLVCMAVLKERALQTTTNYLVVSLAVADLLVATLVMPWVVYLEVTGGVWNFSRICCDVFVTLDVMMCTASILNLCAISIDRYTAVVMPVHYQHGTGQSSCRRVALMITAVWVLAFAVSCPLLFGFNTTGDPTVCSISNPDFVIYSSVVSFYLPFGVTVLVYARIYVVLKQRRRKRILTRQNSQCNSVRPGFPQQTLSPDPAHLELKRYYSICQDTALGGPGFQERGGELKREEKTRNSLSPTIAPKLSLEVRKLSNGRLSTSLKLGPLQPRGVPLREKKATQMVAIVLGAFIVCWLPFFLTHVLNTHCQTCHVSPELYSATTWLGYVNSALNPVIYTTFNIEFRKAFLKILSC
Description: (§1) The novel hybrid derivatives 3–11 were tested at hD2R, hD3R, or hD4R stably expressed in HEK293 cells by competition binding assays, using [^3H]N-methylspiperone as the radioligand, to evaluate their D2-like affinity and subtype selectivity, following the previously reported procedures.[41],[45],[46]
(§2) Binding at dopamine D2-like receptors was determined using previously described methods.[41],[45],[46] Membranes were prepared from HEK293 cells stably expressing human D2, D3, or D4, grown in a 50:50 mix of Dulbecco’s minimal essential medium (DMEM) and Ham’s F12 culture media, supplemented with 20 mM HEPES, 2 mM L-glutamine, 0.1 mM nonessential amino acids, 1× antibiotic/antimycotic, 10% heat-inactivated fetal bovine serum, and 200 μg/mL hygromycin (Life Technologies, Grand Island, NY) and kept in an incubator at 37 °C and 5% CO2. Upon reaching 80–90% confluency, the cells were harvested using premixed Earle’s Balanced Salt Solution (EBSS) with 5 μM EDTA (Life Technologies) and centrifuged at 3000 rpm for 10 min at 21 °C. The supernatant was removed, and the pellet was resuspended in 10 mL hypotonic lysis buffer (5 mM MgCl2, 5 mM Tris, pH 7.4 at 4 °C) and centrifuged at 20,000 rpm for 30 min at 4 °C. The pellet was then resuspended in fresh EBSS buffer made from 8.7 g/L Earle’s Balanced Salts without phenol red (US Biological, Salem, MA), 2.2 g/L sodium bicarbonate, pH to 7.4. A Bradford protein assay (Bio-Rad, Hercules, CA) was used to determine the protein concentration, and membranes were diluted to 500 μg/mL and stored at −80 °C for later use. Radioligand competition binding experiments were conducted using thawed membranes. Test compounds were freshly dissolved in 30% DMSO and 70% H2O to a stock concentration of 100 μM. To assist the solubilization of free-base compounds, 10 μL of glacial acetic acid was added along with DMSO. Each test compound was then diluted into 13 half-log serial dilutions using 30% DMSO vehicle; the final test concentrations ranged from 10 μM to 10 pM. The previously frozen membranes were diluted in fresh EBSS to a 100 μg/mL (for D2 or D3) or 200 μg/mL (D4) stock for binding. Radioligand competition experiments were conducted in glass tubes containing 300 μL of fresh EBSS buffer, 50 μL of diluted test compound, 100 μL of membranes (10 μg of total protein for D2 or D3 and 20 μg of total protein for D4), and 50 μL of [^3H]N-methylspiperone (0.4 nM final concentration; PerkinElmer). Nonspecific binding was determined using 10 μM butaclamol (Sigma-Aldrich, St. Louis, MO), and total binding was determined with the 30% DMSO vehicle. All compound dilutions were tested in triplicate and the reaction was incubated for 1 h at room temperature. The reaction was terminated by filtration through Whatman GF/B filters, presoaked for 1 h in 0.5% polyethylenimine, using a Brandel R48 filtering manifold (Brandel Instruments, Gaithersburg, MD). The filters were washed three times with 3 mL of ice-cold EBSS buffer and transferred to scintillation vials. CytoScint liquid scintillation cocktail (3 mL, MP Biomedicals, Solon, OH) was added, and vials were counted using a PerkinElmer Tri-Carb 2910 TR liquid scintillation counter (Waltham, MA).

D2R = D2R (Homo sapiens, UniProt P14416); assay: Radioligand competition binding at human D2R ([3H]N-methylspiperone, HEK293 membranes); set-up: expressed in transfected cells; host or cells: HEK293; conditions: for inhibition at 10 µM / inhibition percentage of the radioligand binding, D2R: test compound concentration of 10 μM; for inhibition at 10 µM: read-out: inhibition percentage of the radioligand binding, D2R; for Ki: HEK 293 cells expressing hD2R, read-out: Ki ± SEM, D2R; for inhibition percentage of the radioligand binding, D2R: 10 µM
D2R, sequence (P14416 whole entry): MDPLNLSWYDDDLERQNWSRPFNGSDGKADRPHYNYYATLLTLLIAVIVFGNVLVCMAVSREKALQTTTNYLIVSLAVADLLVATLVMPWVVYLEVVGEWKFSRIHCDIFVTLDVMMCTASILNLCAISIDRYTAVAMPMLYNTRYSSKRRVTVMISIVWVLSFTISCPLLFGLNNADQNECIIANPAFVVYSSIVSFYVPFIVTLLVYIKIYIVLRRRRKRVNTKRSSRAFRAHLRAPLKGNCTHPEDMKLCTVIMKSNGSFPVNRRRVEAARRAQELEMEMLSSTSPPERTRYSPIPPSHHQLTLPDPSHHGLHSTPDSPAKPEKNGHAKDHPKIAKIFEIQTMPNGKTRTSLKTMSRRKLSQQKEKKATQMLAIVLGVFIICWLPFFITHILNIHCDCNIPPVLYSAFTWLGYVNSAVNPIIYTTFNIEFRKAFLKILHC
Description: as §1, §2

D4R = molecular target: T1, D4R (Homo sapiens, UniProt P21917); assay: Radioligand competition binding at human D4R ([3H]N-methylspiperone, HEK293 membranes); set-up: expressed in transfected cells; host or cells: HEK293; conditions: for inhibition at 10 µM / inhibition percentage of the radioligand binding, D4R: test compound concentration of 10 μM; for inhibition at 10 µM: read-out: inhibition percentage of the radioligand binding, D4R; for Ki: HEK 293 cells expressing hD4R, read-out: Ki ± SEM, D4R; for inhibition percentage of the radioligand binding, D4R: 10 µM
T1 sequence (P21917 1-419): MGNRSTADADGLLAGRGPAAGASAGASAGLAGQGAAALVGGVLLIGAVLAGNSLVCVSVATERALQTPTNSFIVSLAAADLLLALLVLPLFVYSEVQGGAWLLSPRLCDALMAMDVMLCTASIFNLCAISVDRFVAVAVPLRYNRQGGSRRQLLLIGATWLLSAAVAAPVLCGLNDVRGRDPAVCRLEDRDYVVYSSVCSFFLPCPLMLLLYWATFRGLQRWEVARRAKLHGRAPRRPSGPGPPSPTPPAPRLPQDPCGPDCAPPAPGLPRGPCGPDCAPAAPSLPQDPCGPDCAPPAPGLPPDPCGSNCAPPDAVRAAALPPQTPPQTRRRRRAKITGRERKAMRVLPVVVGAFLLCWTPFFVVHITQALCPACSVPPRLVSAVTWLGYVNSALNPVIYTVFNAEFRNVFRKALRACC
Description: as §1, §2

Compound: O=C(NCCCCN1CCN(c2cccc(Cl)c2Cl)CC1)C1COc2ccccc2O1 (stereo not drawn) (as salt: oxalate) [compound 9, N-(4-(4-(2,3-Dichlorophenyl)piperazin-1-yl)butyl)-2,3-dihydrobenzo[b][1,4]dioxine-2-carboxamide]
melting point: 167 to 168 °C

Compound: O=C(NCCC(O)CN1CCN(c2cccc(Cl)c2Cl)CC1)C1COc2ccccc2O1 (stereo not drawn) [10a, N-(4-(4-(2,3-Dichlorophenyl)piperazin-1-yl)-3-hydroxybutyl)-2,3-dihydrobenzo[b][1,4]dioxine-2-carboxamide]
Ki (D3R; [3H]N-methylspiperone): 44.1 ± 8.2 nM | D2/D3 (D3R): 25 | D4/D3 (D3R): 6 | Ki (D2R): 1100 ± 125 nM | Ki (D4R): 282 ± 76 nM

Compound: O=C(NCCC(O)CN1CCN(c2cccc(Cl)c2Cl)CC1)C1COC(c2ccccc2)(c2ccccc2)CO1 (stereo not drawn) (as salt: oxalate) [compound 7, N-(4-(4-(2,3-Dichlorophenyl)piperazin-1-yl)-3-hydroxybutyl)-5,5-diphenyl-1,4-dioxane-2 Carboxamide]
melting point: 132 to 133 °C

Compound: O=C(NCCCCN1CCN(c2cccc(Cl)c2Cl)CC1)C1COCC(c2ccccc2)(c2ccccc2)O1 (stereo not drawn) (as salt: oxalate) [compound 3, N-(4-(4-(2,3-Dichlorophenyl)piperazin-1-yl)butyl)-6,6-diphenyl-1,4-dioxane-2-carboxamide]
melting point: 107 to 108 °C

Compound: O=C(NCCC(O)CN1CCN(c2cccc(Cl)c2Cl)CC1)C1COc2ccccc2O1 (single isomer, unassigned) (as salt: oxalate) [10a, N-(4-(4-(2,3-Dichlorophenyl)piperazin-1-yl)-3-hydroxybutyl)-2,3-dihydrobenzo[b][1,4]dioxine-2-carboxamide]
melting point: 88 to 89 °C

Compound: O=C(NCCC(F)CN1CCN(c2cccc(Cl)c2Cl)CC1)C1COCC(c2ccccc2)(c2ccccc2)O1 (stereo not drawn) (as salt: oxalate) [compound 5, N-(4-(4-(2,3-Dichlorophenyl)piperazin-1-yl)-3-fluorobutyl)-6,6-diphenyl-1,4-dioxane-2-carboxamide]
melting point: 100 to 101 °C

Compound: O=C(NCCC(F)CN1CCN(c2cccc(Cl)c2Cl)CC1)C1COC(c2ccccc2)(c2ccccc2)CO1 (stereo not drawn) (as salt: oxalate) [compound 8, N-(4-(4-(2,3-Dichlorophenyl)piperazin-1-yl)-3-fluorobutyl)-5,5-diphenyl-1,4-dioxane-2-carboxamide]
melting point: 126 to 127 °C

Compound: O=C(NCCC(O)CN1CCN(c2cccc(Cl)c2Cl)CC1)C1COC(c2ccccc2)(c2ccccc2)CO1 (stereo not drawn) [compound 7, N-(4-(4-(2,3-Dichlorophenyl)piperazin-1-yl)-3-hydroxybutyl)-5,5-diphenyl-1,4-dioxane-2 Carboxamide]
Ki (D3R; [3H]N-methylspiperone): 23.4 ± 3.1 nM | D2/D3 (D3R): 23 | D4/D3 (D3R): 17 | Ki (D2R): 526 ± 28.2 nM | Ki (D4R): 390 ± 46 nM

Compound: O=C(NCCC(F)CN1CCN(c2cccc(Cl)c2Cl)CC1)C1COCC(c2ccccc2)(c2ccccc2)O1 (stereo not drawn) [compound 5, N-(4-(4-(2,3-Dichlorophenyl)piperazin-1-yl)-3-fluorobutyl)-6,6-diphenyl-1,4-dioxane-2-carboxamide]
Ki (D3R; [3H]N-methylspiperone): 716 ± 178 nM | inhibition at 10 µM (D2R): 21.2% | inhibition at 10 µM (D4R): 19.1%

Compound: O=C(NCCC(O)CN1CCN(c2cccc(Cl)c2Cl)CC1)C1COc2ccccc2O1 (stereo not drawn) [10b, N-(4-(4-(2,3-Dichlorophenyl)piperazin-1-yl)-3-hydroxybutyl)-2,3-dihydrobenzo[b][1,4]dioxine-2-carboxamide]
Ki (D3R; [3H]N-methylspiperone): 23.4 ± 2.4 nM | D4/D3 (D3R): 10 | Ki (D2R): 783 ± 19 nM | Ki (D4R): 244 ± 54 nM

Compound: O=C(NCCC(F)CN1CCN(c2cccc(Cl)c2Cl)CC1)C1COC(c2ccccc2)(c2ccccc2)CO1 (stereo not drawn) [compound 8, N-(4-(4-(2,3-Dichlorophenyl)piperazin-1-yl)-3-fluorobutyl)-5,5-diphenyl-1,4-dioxane-2-carboxamide]
Ki (D3R; [3H]N-methylspiperone): 295 ± 100 nM | D2/D3 (D3R): 4 | Ki (D2R): 1200 ± 210 nM | inhibition at 10 µM (D4R): 43.6%

Compound: O=C(NCCCCN1CCN(c2cccc(Cl)c2Cl)CC1)C1COC(c2ccccc2)(c2ccccc2)CO1 (stereo not drawn) (as salt: oxalate) [compound 6, N-(4-(4-(2,3-Dichlorophenyl)piperazin-1-yl)butyl)-5,5-diphenyl-1,4-dioxane-2-carboxamide]
melting point: 94 to 95 °C

More lines, now with the values ahead:

Ki (D3R; [3H]N-methylspiperone): 164 ± 52 nM | inhibition at 10 µM (D2R): 39.5% | inhibition at 10 µM (D4R): 39.2%
Compound: O=C(NCCC(O)CN1CCN(c2cccc(Cl)c2Cl)CC1)C1COCC(c2ccccc2)(c2ccccc2)O1 (stereo not drawn) [4a, N-(4-(4-(2,3-Dichlorophenyl)piperazin-1-yl)-3-hydroxybutyl)-6,6-diphenyl-1,4-dioxane-2-carboxamide]

inhibition at 10 µM (D3R; test compound concentration of 10 μM, [3H]N-methylspiperone, read-out: inhibition percentage of the radioligand binding, D3R): 54.8% | inhibition at 10 µM (D2R): 10.6% | inhibition at 10 µM (D4R): 29.4%
Compound: O=C(NCCC(F)CN1CCN(c2cccc(Cl)c2Cl)CC1)C1COc2ccccc2O1 (stereo not drawn) [11a, N-(4-(4-(2,3-Dichlorophenyl)piperazin-1-yl)-3-fluorobutyl)-2,3-dihydrobenzo[b][1,4]dioxine-2-carboxamide]

Ki (D3R; [3H]N-methylspiperone): 77.1 ± 25.5 nM | inhibition percentage of the radioligand binding, D2R (D2R): 41% ^c | inhibition percentage of the radioligand binding, D4R (D4R): 54.4% ^c
Compound: O=C(NCCC(O)CN1CCN(c2cccc(Cl)c2Cl)CC1)C1COCC(c2ccccc2)(c2ccccc2)O1 (stereo not drawn) [4b, N-(4-(4-(2,3-Dichlorophenyl)piperazin-1-yl)-3-hydroxybutyl)-6,6-diphenyl-1,4-dioxane-2-carboxamide]

melting point: 200 to 201 °C
Compound: O=C(NCCC(F)CN1CCN(c2cccc(Cl)c2Cl)CC1)C1COc2ccccc2O1 (stereo not drawn) (as salt: oxalate) [11a, N-(4-(4-(2,3-Dichlorophenyl)piperazin-1-yl)-3-fluorobutyl)-2,3-dihydrobenzo[b][1,4]dioxine-2-carboxamide]

melting point: 146 to 147 °C
Compound: O=C(NCCC(O)CN1CCN(c2cccc(Cl)c2Cl)CC1)C1COCC(c2ccccc2)(c2ccccc2)O1 (single isomer, unassigned) (as salt: oxalate) [4a, N-(4-(4-(2,3-Dichlorophenyl)piperazin-1-yl)-3-hydroxybutyl)-6,6-diphenyl-1,4-dioxane-2-carboxamide]

inhibition percentage of the radioligand binding, D3R (D3R; test compound concentration of 10 μM, [3H]N-methylspiperone, 10 µM): 65.4% ^c | inhibition percentage of the radioligand binding, D2R (D2R): 8.7% ^c | inhibition percentage of the radioligand binding, D4R (D4R): 26.6% ^c
Compound: O=C(NCCC(F)CN1CCN(c2cccc(Cl)c2Cl)CC1)C1COc2ccccc2O1 (stereo not drawn) [11b, N-(4-(4-(2,3-Dichlorophenyl)piperazin-1-yl)-3-fluorobutyl)-2,3-dihydrobenzo[b][1,4]dioxine-2-carboxamide]
